“Also recorded” adds a separate entry of the source.
What was measured:
[1] = target: MAO-A (Mus musculus (Mouse), UniProt Q64133); format: in vivo, mice
Description: (§1) For the MAO-inhibition study, mice (6 mice in each group) were injected intraperitoneally (i.p.) with compound 3 at the dosage of 5 or 10 mg/kg; or with M30 at the dosage of 10 mg/kg. Control mice received saline (0.1 mL) i.p. One hour later the mice were killed by cervical dislocation, while striatum and small intestine were removed rapidly and frozen in liquid nitrogen for further analysis. FIGS. 3 and 4 show MAO-A/MAO-B in vivo activity of compound 3 compared to the activity of M30. FIG. 3 presents an MAO inhibition in striatum, and FIG. 4 presents an MAO inhibition in intestine. The percent inhibition was computed based on comparison to control animals.

[2] = Stability in aqueous solution (PBS or saline) followed by HPLC; format: physicochemical; details: for Amount of compound remaining (%): 25° C., 0.5 mM
Description: (§2) Using high pressure liquid chromatography (HPLC), the stability of each of the tested compounds was determined by following its respective chemical character over time in either phosphate buffered saline (PBS) and/or 0.85% saline solution (sodium chloride). In each case, 0.5 mM of the tested compound in PBS or saline solution was incubated at 25° C. or at 37° C. for 20 hours or, in some cases, up to two days (48 hours).

[3] = Follow-up stability experiment at 37° C. in PBS; format: physicochemical
Description: as §2
In addition, in a follow-up experiment the instability of M30, and the stability of compounds 3, 7 and 8 was also confirmed at 37° C. in PBS, Table 2, below.

[4] = test system: HepG2 cells; assay: Cytotoxicity in presence and absence of exogenous iron, HepG2; format: cell-based, human
Description: (§3) The potential of compound 3 to be toxic in the presence of free iron was also tested. The iron complexation method was based on the method of Leanderson and Tagesson (Carcinogenesis, 17, 545-550, 1996) with some modifications. Iron (III) was prepared from ferric ammonium citrate (Sigma, F5879) at 80 mM in sterile distilled water. Compound 3 was prepared at a 200 mM concentration in DMSO. Before each experiment, the freshly prepared iron (III) solution was diluted to 0.4 mM in PBS II (PBS containing 0.90 mM Ca^2+ and 0.49 mM Mg^2+). Compound 3 stock solutions were diluted to 2, 0.2, and 0.02 mM with PBS II. Equal volumes of the 0.4 mM iron (III) solution and compound 3 solutions were added together to prepare iron/test article complex solutions containing 1, 0.1, and 0.01 mM compound 3 and 0.2 mM iron (III). The compound 3 DMSO stock solution was diluted in PBS II at 1, 0.1, or 0.01 mM and used as compound 3 control without iron. An equal volume of the 0.4 mM iron (III) solution was diluted in PBS II to prepare a control containing only iron.
(§4) The medium was removed from the plated cells (both cell lines) and replaced with fresh medium (90 μL). Iron/compound 3 complex or compound 3 in PBS II without iron was added to cells in triplicate (10 μL) to final compound 3 concentrations of 100, 10, and 1 μM and an iron (III) concentration of 20 μM. Wells containing no cells were used as the background control. PBS II was run as vehicle control. Iron only was run at a final concentration of 20 μM.
(§5) Cell viability was determined as described above and cytotoxicity was compared between treatments with and without iron complexation.

[5] = test system: SHSY-5Y cells; assay: Cytotoxicity in presence and absence of exogenous iron, SH-SY5Y; format: cell-based, human
Description: as §3, §4, §5

[6] = target: MAO-B (Mus musculus (Mouse), UniProt Q8BW75); assay: In vivo MAO-B inhibition in mice after a single i.p. injection; details: one hour later
Sequence of MAO-B (Q8BW75 whole entry): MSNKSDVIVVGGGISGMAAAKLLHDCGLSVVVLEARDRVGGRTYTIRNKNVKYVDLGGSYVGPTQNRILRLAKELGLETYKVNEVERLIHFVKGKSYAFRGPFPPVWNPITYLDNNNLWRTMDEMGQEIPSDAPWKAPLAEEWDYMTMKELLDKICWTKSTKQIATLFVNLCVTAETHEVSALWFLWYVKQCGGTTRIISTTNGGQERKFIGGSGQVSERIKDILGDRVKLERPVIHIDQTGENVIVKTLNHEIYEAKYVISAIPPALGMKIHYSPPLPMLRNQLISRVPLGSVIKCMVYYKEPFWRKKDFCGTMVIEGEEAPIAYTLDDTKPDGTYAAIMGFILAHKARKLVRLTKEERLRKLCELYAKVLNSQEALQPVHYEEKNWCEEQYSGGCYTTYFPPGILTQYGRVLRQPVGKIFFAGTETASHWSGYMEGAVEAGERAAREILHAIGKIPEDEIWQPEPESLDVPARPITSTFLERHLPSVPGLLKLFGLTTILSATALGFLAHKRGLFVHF
Description: as §1

[7] = test system: SHSY-5Y cells; assay: in vitro; details: read-out: LC50 (μM) SHSY-5Y; four hours incubation
Description: (§6) The cytotoxicity of compound 3 was assessed in vitro using two standard cell lines, HepG2, derived from a human hepatocellular carcinoma, and SH-SY5Y, derived from a human neuroblastoma, both in the presence and absence of excess iron.
(§7) HepG2 cells were maintained at ˜5% CO2, 37° C., and 95% relative humidity in minimal essential media (MEM) supplemented with 10% fetal bovine serum plus 0.1 mM non-essential amino acids, 2 mM L-glutamine, and penicillin/streptomycin. SH-SY5Y cells were maintained at ˜5% CO2, 37° C., and 95% relative humidity in a mixture of minimal essential media (MEM) and F12 K media (1:1, v:v) supplemented with 10% fetal bovine serum plus 0.1 mM non-essential amino acids, 2 mM L-glutamine, and penicillin/streptomycin. The cells were subcultured every two to three days and plated in tissue culture treated opaque white 96-well plates at a density of 1×10^4 cells/well and incubated at ˜5% CO2, 37° C., and 95% relative humidity overnight prior to initiation of the assay.
(§8) A series of DMSO stocks of the test article at 100× of the final concentration were diluted 1:100 with fresh culture media (final DMSO concentration was 1%). The media from the plated cells was removed and replaced with 100 μL of media containing test article or tamoxifen with final concentrations ranging between 0.01 to 1000 μM in triplicate. Wells containing no cells were used as background controls. Tamoxifen was used as a known positive control and DMSO alone was used as a vehicle control. The cells were incubated for four hours at ˜5% CO2, 37° C., and 95% relative humidity.
(§9) Cell viability was determined using a commercially available kit to determine ATP levels by luminescence. Briefly, the buffer and lyophilized substrate from the kit were equilibrated to room temperature. The buffer was used to reconstitute the substrate just prior to addition to the wells of the cell plate (100 μL per well). The plate was placed into the Tecan Infinite M200 plate reader, agitated for 10 minutes followed by a 10 minute wait period, then read using an integration time of 0.5 seconds with no attenuation.
(§10) The mean luminescence from the test article treated cells was compared to that treated by DMSO only.

[8] = in vitro; details: human
Description: as §6, §7, §8, §9, §10

[9] = with iron (20 μM), compound 1 μM
[10] = with iron (20 μM), compound 10 μM
[11] = with iron (20 μM), compound 100 μM

Sequence of MAO-A (Q64133 whole entry): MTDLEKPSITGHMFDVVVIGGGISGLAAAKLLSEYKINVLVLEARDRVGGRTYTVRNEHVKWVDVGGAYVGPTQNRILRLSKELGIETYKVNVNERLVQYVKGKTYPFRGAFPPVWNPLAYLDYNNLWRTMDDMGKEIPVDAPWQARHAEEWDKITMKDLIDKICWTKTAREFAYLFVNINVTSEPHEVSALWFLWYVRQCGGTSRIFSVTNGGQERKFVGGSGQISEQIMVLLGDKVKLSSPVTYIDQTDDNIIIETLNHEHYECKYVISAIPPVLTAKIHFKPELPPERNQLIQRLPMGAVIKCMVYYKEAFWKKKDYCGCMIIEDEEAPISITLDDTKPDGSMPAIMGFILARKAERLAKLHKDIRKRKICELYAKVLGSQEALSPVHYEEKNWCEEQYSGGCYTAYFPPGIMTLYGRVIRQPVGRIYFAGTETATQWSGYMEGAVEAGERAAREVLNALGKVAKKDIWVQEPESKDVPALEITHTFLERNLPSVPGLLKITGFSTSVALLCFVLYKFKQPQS

## C#CCN(C)CCc1ccc(O)c2ncccc12 [Compound 3, 5-[2-(methyl-2-propyn-1-ylamino)ethyl]-8-quinolinol]
[1]; mice, single i.p. injection, 5 or 10 mg/kg, one hour later
  MAO-A inhibition in striatum: inhibited in a dose responsive fashion
[1]; mice, single i.p. injection, small intestine, one hour later
  MAO-A inhibition in intestine: Reduced inhibition in the intestinal tissue versus striatal tissue
[1]; mouse, in vivo, ip
  Penetration of brain tissue: able to penetrate brain tissue
[2]; PBS and/or saline solution
  Stability in aqueous solution (in words): highly stable chemically; also recorded: ^+Compound 3 was stable for up to 48 hours at 25 °C in both saline and PBS
[2]; PBS, 0.5 hours
  Amount of compound remaining (%): 100%
[2]; PBS, 2 hours
  Amount of compound remaining (%): 100%
[2]; PBS, 20 hours
  Amount of compound remaining (%): 100%
[2]; PBS, 48 hours
  Amount of compound remaining (%): 100%
[2]; saline, 0.5 hours
  Amount of compound remaining (%): 100%
[2]; saline, 2 hours
  Amount of compound remaining (%): 100%
[2]; saline, 20 hours
  Amount of compound remaining (%): 100%
[2]; saline, 48 hours
  Amount of compound remaining (%): 100%
[3]; 3 hours
  Amount of compound remaining (%): ≧100%
[3]; 8 hours
  Amount of compound remaining (%): 95.7%
[3]; 24 hours
  Amount of compound remaining (%): ≧100%
[3]; 48 hours
  Amount of compound remaining (%): 87.2%
[4]; [9]
  HepG2 cell death (%): 4.8%
[4]; [10]
  HepG2 cell death (%): 11.9%
[4]; [11]
  HepG2 cell death (%): 99.5%
[4]; without iron, compound 1 μM
  HepG2 cell death (%): −0.1%
[4]; without iron, compound 10 μM
  HepG2 cell death (%): −0.7%
[4]; without iron, compound 100 μM
  HepG2 cell death (%): −3.6%
[5]; with exogenous iron (20 μM), compound 1 μM
  SHSY-5Y cells alive: 100%
[5]; [9]
  SHSY-5Y cell death (%): −1.0%
[5]; [10]
  SHSY-5Y cell death (%): 7.6%
[5]; [11]
  SHSY-5Y cell death (%): 90.3%
[5]; without iron, compound 1 μM
  SHSY-5Y cell death (%): 2.1%
[5]; without iron, compound 10 μM
  SHSY-5Y cell death (%): 0.8%
[5]; without iron, compound 100 μM
  SHSY-5Y cell death (%): 0.4%
[6]; 5 or 10 mg/kg
  MAO-B inhibition in striatum: inhibited in a dose responsive fashion
[6]; small intestine
  MAO-B inhibition in intestine: Reduced inhibition in the intestinal tissue versus striatal tissue
[7]
  CC50: 885 µM
[8]
  CC50 at 4 h: > 1000 µM
[8]; LC50 (μM) SHSY-5Y, four hours incubation
  CC50 at 4 h: 865 µM

From patent US9034303B2, “Neuroprotective and neuro-restorative iron chelators and monoamine oxidase inhibitors and uses thereof” (priority 2010, dated 2015)
